# Assay results published in US5932574A, “Quinazoline derivatives” (Zeneca Limited, priority 1995, dated 1999).
# Columns and labels:
# [1] = tested on: human mammary carcinoma which expresses EGF receptor tyrosine kinase; conditions: in words; athymic nude mice; Toi et al., 1990; cited from earlier work
# [2] = tested on: another carcinoma which does not express EGF receptor tyrosine kinase; conditions: in words; Toi et al., 1990; cited from earlier work
# [3] = tested on: human naso-pharyngeal cancer cell line KB; assay: Inhibition of EGF-stimulated growth of human naso-pharyngeal cancer cell line KB, Test (b); assay type: cell-based; conditions: 72 h, EGF (10 ng/ml), 3 days, approximate
# Protocol: (b) An in vitro assay which determines the ability of a test compound to inhibit the EGF-stimulated growth of the human naso-pharyngeal cancer cell line KB. […] Cell growth was determined after incubation for 3 days by the extent of metabolism of MTT tetrazolium dye to furnish a bluish colour. Cell growth was then determined in the presence of EGF (10 ng/ml) or in the presence of EGF (10 ng/ml) and a test compound at a range of concentrations. An IC50 value could then be calculated.
# [4] = tested on: human vulval epidermoid carcinoma cell line A-431; assay: Inhibition of growth of A-431 xenografts in athymic nude mice, Test (c); assay type: in vivo, human xenograft in athymic nude mice (strain ONU:Alpk); conditions: daily dose of 50 mg/kg, usually oral, relative to untreated controls
# Protocol: (c) An in-vivo assay in a group of athymic nude mice (strain ONU:Alpk) which determines the ability of a test compound (usually administered orally as a ball-milled suspension in 0.5% polysorbate) to inhibit the growth of xenografts of the human vulval epidermoid carcinoma cell line A-431. A-431 cells were maintained in culture in DMEM supplemented with 5% FCS and 2 mM glutamine. Freshly cultured cells were harvested by trypsinization and injected subcutaneously (10 million cells/0.1 ml/mouse) into both flanks of a number of donor nude mice. When sufficient tumour material was available (after approximately 9 to 14 days), fragments of tumour tissue were transplanted in the flanks of recipient nude mice (test day 0). Generally, on the seventh day after transplantation (test day 7) groups of 7 to 10 mice with similar-sized tumours were selected and dosing of the test compound was commenced. Once daily dosing of test compound was continued for a total of 13 days (test days 7 to 19 inclusive). In some studies the dosing of the test compound was continued beyond test day 19, for example to test day 26. In each case, on the following test day the animals were killed and the final tumour volume was calculated from measurements of the length and width of the tumours. Results were calculated as a percentage inhibition of tumour volume relative to untreated controls.
# [5] = target: T1, EGF receptor tyrosine kinase (Homo sapiens, UniProt P00533); assay: Inhibition of EGF receptor tyrosine kinase in vitro, Test (a); assay type: biochemical; conditions: approximate
# T1 construct: Receptor tyrosine kinase was obtained in partially purified form from A-431 cells (derived from human vulval carcinoma); endogenous in cells; host or cells: A-431 cells (Triton X-100 solubilised membrane fraction)
# T1 sequence (P00533 25-1210): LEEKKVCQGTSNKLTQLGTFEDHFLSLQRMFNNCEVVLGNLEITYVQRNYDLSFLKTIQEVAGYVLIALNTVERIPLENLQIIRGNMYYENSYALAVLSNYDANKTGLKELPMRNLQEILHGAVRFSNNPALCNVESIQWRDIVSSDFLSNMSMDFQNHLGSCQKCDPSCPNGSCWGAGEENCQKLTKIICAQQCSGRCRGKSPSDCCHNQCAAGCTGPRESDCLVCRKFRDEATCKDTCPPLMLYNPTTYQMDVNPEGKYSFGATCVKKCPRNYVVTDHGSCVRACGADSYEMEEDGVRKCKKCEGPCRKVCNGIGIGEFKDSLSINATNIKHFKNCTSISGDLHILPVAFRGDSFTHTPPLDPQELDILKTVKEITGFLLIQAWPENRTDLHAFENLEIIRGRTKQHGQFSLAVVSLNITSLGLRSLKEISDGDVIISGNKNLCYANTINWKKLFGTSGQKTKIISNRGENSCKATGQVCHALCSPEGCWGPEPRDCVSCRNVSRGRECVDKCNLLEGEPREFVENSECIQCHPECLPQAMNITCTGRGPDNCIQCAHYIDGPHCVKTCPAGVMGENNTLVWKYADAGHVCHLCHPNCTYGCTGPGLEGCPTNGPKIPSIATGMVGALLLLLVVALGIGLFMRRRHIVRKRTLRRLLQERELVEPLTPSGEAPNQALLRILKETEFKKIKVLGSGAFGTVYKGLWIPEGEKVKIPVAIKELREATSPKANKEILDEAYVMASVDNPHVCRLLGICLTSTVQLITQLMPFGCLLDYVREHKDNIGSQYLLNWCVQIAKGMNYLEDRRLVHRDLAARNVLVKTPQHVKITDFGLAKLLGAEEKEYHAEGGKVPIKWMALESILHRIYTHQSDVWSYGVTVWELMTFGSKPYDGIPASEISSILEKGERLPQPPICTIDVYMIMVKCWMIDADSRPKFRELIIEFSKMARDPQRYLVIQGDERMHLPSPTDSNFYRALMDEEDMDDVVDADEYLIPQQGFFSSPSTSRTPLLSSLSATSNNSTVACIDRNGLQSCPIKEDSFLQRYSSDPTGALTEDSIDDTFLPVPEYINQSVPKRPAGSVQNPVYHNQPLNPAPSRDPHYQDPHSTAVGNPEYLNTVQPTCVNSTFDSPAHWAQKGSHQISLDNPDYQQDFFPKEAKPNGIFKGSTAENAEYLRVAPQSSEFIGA
# Protocol: (a) An in vitro assay which determines the ability of a test compound to inhibit the enzyme EGF receptor tyrosine kinase. Receptor tyrosine kinase was obtained in partially purified form from A-431 cells (derived from human vulval carcinoma) by the procedures described below which are related to those described by Carpenter et al., J. Biol. Chem., 1979, 254, 4884, Cohen et al., J. Biol. Chem., 1982, 257, 1523 and by Braun et al., J. Biol. Chem., 1984, 259, 2051.
# A-431 cells were grown to confluence using Dulbecco's modified Eagle's medium (DMEM) containing 5% fetal calf serum (FCS). The obtained cells were homogenised in a hypotonic borate/EDTA buffer at pH 10.1. The homogenate was centrifuged at 400 g for 10 minutes at 0-4° C. The supernatant was centrifuged at 25,000 g for 30 minutes at 0-4° C. […]
# The test compound/EGF mixture solution (5 μl) was added to the test enzyme solution (10 μl) and the mixture was incubated at 0-4° C. for 30 minutes. […] Radioactivity present in the filter paper was measured using a liquid scintillation counter (Sequence A). […]
# Receptor tyrosine kinase inhibition was calculated as follows: [formula]
# The extent of inhibition was then determined at a range of concentrations of test compound to give an IC50 value.
IC50 [3] [nM],IC50 [5] [nM],SMILES,growth of transplanted human mammary carcinoma [1],growth of carcinoma not expressing EGF receptor tyrosine kinase [2],inhibition of tumour volume [4]
–,–,O=CN/C=C/c1cc(O)ccc1O [erbstatin],specifically attenuates the growth,without effect on the growth,–
~1200,–,"Fc1ccc(Nc2ncnc3ccc(OCCCN4CCOCC4)cc23)cc1F [4-(3',4'-difluoroanilino)-6-(3-morpholinopropoxy)quinazoline]",–,–,greater than 50%
~100,~3,CCN(CC)CCCOc1ccc2ncnc(Nc3ccc(F)c(Cl)c3)c2c1 [4-(3'-chloro-4'-fluoroanilino)-6-(3-diethylaminopropoxy)quinazoline],–,–,greater than 50%
